This is an account of results in patent publication US12290575B2, “Fluorescent compound comprising a fluorophore conjugated to a pH-triggered polypeptide” (UNIVERSITY OF RHODE ISLAND BOARD OF TRUSTEES, priority 2016, dated 2025).

Where a SMILES comes first, the peptide text is derived from it. Where no end group is shown, it is not given here. The star is where a group is joined. X1 = CC1(C)C(/C=C/C=C/C=C/C=C2/N(CCCCCC(=O)NCCN3C(=O)CC(*)C3=O)c3ccc4ccccc4c3C2(C)C)=[N+](CCCCS(=O)(=O)[O-])c2ccc3ccccc3c21; ICG maleimide = indocyanine green maleimide

For series [1] the following is noted: residue X in AcWL-X-LL, relative to virtual glycine; Arg and Lys from pH 1 data; cited from earlier work.
The conditions of series [2]: high dose of 5 mg/kg of body weight; cited from earlier work.
The conditions of series [3]: cited from earlier work.
The conditions of series [4]: current use; cited from earlier work.
The nature of series [5]: Fluorescence imaging of blood flow in mice (ear, leg, blood samples). In kind it is in vivo, nude mice. Particulars: for fluorescent signal in blood samples: blood withdrawn 5-120 min after IV; for imaging of blood vessels (ear, leg): 100 μL of 40 μM IV, 5, 30, 60, 90, 120 min. As for the experimental part:
Adult female nude mice (Envigo), 20 g in body mass were used in the study. Fluorescent constructs were given as a single tail vein injection in amounts of 100 μL of 40 μM in PBS. Imaging of mouse ear and leg was performed at 5, 30, 60, 90 and 120 min after construct administration. At 5, 30, 60, 90 and 120 min after construct administration 5 μL of blood was withdrawn from tail (and mixed with 5 μL of anticoagulating solution to preserve blood) while animal was under anesthesia. Mice were euthanized immediately after last imaging point (120 min). Blood collected from all animals was deposited on the glass slide, dried and imaged. Imaging was performed using Novadaq clinical imaging instrument. Autofluorescence was established by imaging mouse with no injection of fluorescent constructs (the level of autofluorescence signal was insignificant compared to the signal after the constructs administration).

The test system of a further series is 4T1 tumors. Briefly: NIR fluorescence imaging of 4T1 tumors in mice after IV or IP injection. It counts as in vivo, BALB/cAnNHsd mice. As to conditions: 16 h. As for the experimental part: Adult female nude mice and female BALB/cAnNHsd mice (Envigo), 20-25 g in body mass were used in the study. Mouse mammary cancer 4T1 cells were subcutaneously implanted in the right flank (8×10^5 cells/0.1 mL/flank) of adult female BALB/cAnNHsd mice. Rat bladder cancer AY27 cells were subcutaneously implanted in the right flank (8×10^5 cells/0.1 mL/flank) of adult female nude mice. When tumors reached approximately 5-6 mm in diameter, single tail vein injection or single intraperitoneal injection of fluorophore-pHLIP® solutions in PBS were performed. Fluorescent constructs were used in amounts of 100 μL of 40 μM or 100 μL of 20 μM, or 100 μL of 10 μM, or 100 μL of 5 μM. Imaging of mouse was performed at 16 hours after constructs administration. Skin was removed from the tumor site just before imaging while animal was under gas anesthesia, and mice were euthanized immediately after imaging. Tumor, kidney and liver were harvested, imaged and used for histopathological analysis. Imaging was performed using Stryker clinical imaging instrument. Autofluorescence was established by imaging mouse with no injection of fluorescent constructs (the level of autofluorescence signal was insignificant compared to the signal after the constructs administration).

The subject of series [6] is urothelial carcinoma in human bladder specimens. Put plainly: Ex vivo NIR fluorescence imaging of human bladder specimens after instillation. As to the method:
22 urothelial carcinoma patients that were scheduled for radical cystectomy were selected over a twelve month period. After radical cystectomy, bladder specimens were immediately removed and irrigated 3 times for 5 min via catheter with non-buffered saline and instilled and incubated with 80 ml of 8 μM or 32.8 μg/ml (unless otherwise is stated, see notes to Table 8) of ICG-Var3 construct or ICG-Cys in PBS pH 7.4 containing 10 mM D-glucose for 60 minutes. Then, the unbound constructs were removed by rinsing with 80 ml of saline solution 3-5 times, the bladder was irrigated thoroughly with buffered saline and opened using a Y incision on the anterior wall. Using a da Vinci Si near-infrared fluorescence imaging system (Firefly®), ex vivo fluorescent and white light imaging of the entire bladder and its parts was performed. The fluorescent spots were marked and standard pathological analysis was carried out to explore the correlation between appearance of fluorescent signal and cancer lesions.
The specimen was sectioned and submitted after 24 hour fixation in 10% phosphate-buffered formalin according to the standard institutional grossing manual, with emphasis on the marked areas of the bladder. The sections were processed for routine histology into paraffin-embedded blocks. […]
Statistical parameters were calculated according to the following equations: […]

Regarding `C[C@H](N)C(=O)O` [Ala, Alanine], the “ΔGX^cor (solvation free energy of the side chain)” value in series [1] is on record as “+0.65 kcal/mol”.

For `N=C(N)NCCC[C@H](N)C(=O)O` [Arg, Arginine], in series [1], the “ΔGX^cor (solvation free energy of the side chain)” value was -0.66 kcal/mol.

For `NC(=O)C[C@H](N)C(=O)O` [Asn, Asparagine], in series [1], the “ΔGX^cor (solvation free energy of the side chain)” value is reported as “+0.30 kcal/mol”.

As to `CC1(C)C(/C=C/C=C/C=C/C=C2\N(CCCCS(=O)(=O)[O-])c3ccc4ccccc4c3C2(C)C)=[N+](CCCCS(=O)(=O)[O-])c2ccc3ccccc3c21.[Na+]` [ICG, indocyanine green], the toxic effects result in series [2] is given as “No significant toxic effects”. Also, the blood clearance entry in series [3] (half lifetime is just few minutes) is “fast blood clearance”. Further, the metabolites result in series [3] (in vivo) is “no known metabolites”. Also, in series [3] (injected outside blood vessels), the “time after which it binds to the regional lymph nodes” value is 1 to 2 h. The “time of appearing unconjugated in the bile after injection” value in series [3] (intravenous injection, depends on liver vascularization and function) is listed as “about 8 min”. The “imaging time used for free ICG” value in series [4] is 2 to 5 min.

As for `CC[C@H](C)[C@H](NC(=O)[C@@H]1CCCN1C(=O)[C@H](CC(N)=O)NC(=O)[C@H](CCC(N)=O)NC(=O)[C@H](CCC(=O)O)NC(=O)[C@H](CSC1CC(=O)N(CCNC(=O)CCCCCN2/C(=C/C=C/C=C/C=C/C3=[N+](CCCCS(=O)(=O)[O-])c4ccc5ccccc5c4C3(C)C)C(C)(C)c3c2ccc2ccccc32)C1=O)NC(=O)[C@H](C)N)C(=O)N[C@@H](Cc1ccc(O)cc1)C(=O)N[C@@H](Cc1c[nH]c2ccccc12)C(=O)N[C@@H](C)C(=O)N[C@@H](CCCNC(=N)N)C(=O)N[C@@H](Cc1ccc(O)cc1)C(=O)N[C@@H](C)C(=O)N[C@@H](CC(N)=O)C(=O)N[C@@H](Cc1c[nH]c2ccccc12)C(=O)N[C@@H](CC(C)C)C(=O)N[C@@H](Cc1ccccc1)C(=O)N[C@H](C(=O)N[C@H](C(=O)N1CCC[C@H]1C(=O)N[C@@H](CC(C)C)C(=O)N[C@@H](CC(C)C)C(=O)N[C@@H](CC(C)C)C(=O)N[C@@H](CC(C)C)C(=O)N[C@@H](CC(N)=O)C(=O)N[C@@H](CC(C)C)C(=O)N[C@@H](C)C(=O)N[C@@H](CC(C)C)C(=O)N[C@@H](CC(C)C)C(=O)N[C@H](C(=O)N[C@@H](CC(=O)O)C(=O)N[C@@H](C)C(=O)N[C@@H](CC(=O)O)C(=O)N[C@@H](CCC(=O)O)C(=O)NCC(=O)N[C@H](C(=O)O)[C@@H](C)O)C(C)C)[C@@H](C)O)[C@@H](C)O` (stereo partly drawn) [ICG-NpHLIP®] (H-AC(X1)EQNPIYWARYANWLFTTPLLLLNLALLVDADEGT-OH), the “fluorescent signal in blood samples” value in series [5] is reported as “significantly reduced signal”.

With `CC(C)C[C@H](NC(=O)[C@H](Cc1ccc(O)cc1)NC(=O)[C@H](C)NC(=O)[C@H](CCCNC(=N)N)NC(=O)[C@H](Cc1c[nH]c2ccccc12)NC(=O)[C@@H]1CCCN1C(=O)[C@H](CC(N)=O)NC(=O)[C@H](CCC(N)=O)NC(=O)[C@H](CC(=O)O)NC(=O)[C@H](CC(=O)O)NC(=O)[C@H](CSC1CC(=O)N(CCNC(=O)CCCCCN2/C(=C/C=C/C=C/C=C/C3=[N+](CCCCS(=O)(=O)[O-])c4ccc5ccccc5c4C3(C)C)C(C)(C)c3c2ccc2ccccc32)C1=O)NC(=O)[C@H](C)N)C(=O)N[C@@H](CC(=O)O)C(=O)N[C@@H](CC(C)C)C(=O)N[C@@H](CC(C)C)C(=O)N[C@@H](Cc1ccccc1)C(=O)N1CCC[C@H]1C(=O)N[C@H](C(=O)N[C@@H](CC(=O)O)C(=O)N[C@H](C(=O)N[C@@H](CC(C)C)C(=O)N[C@@H](CC(C)C)C(=O)N[C@@H](CC(C)C)C(=O)N[C@@H](CC(=O)O)C(=O)N[C@@H](CC(C)C)C(=O)N[C@@H](CC(C)C)C(=O)N[C@@H](Cc1c[nH]c2ccccc12)C(=O)N[C@@H](C)C(=O)O)[C@@H](C)O)[C@@H](C)O` (stereo partly drawn) [ICG-Var3] (H-AC(X1)DDQNPWRAYLDLLFPTDTLLLDLLWA-OH), the “fluorescent signal in blood samples” value in series [5] is recorded as “persistence of strong fluorescent signal within 2 hours”. Also, in the series on 4T1 tumors, the “fluorescent signal in tumor relative to kidney and liver” value was “signal in tumor was higher than in kidney and similar or slightly less than in liver”. In addition, in series [6], the “adverse morphological findings in specimens after incubation” value is “did not show any adverse morphological findings”.

On to `CC[C@H](C)[C@H](NC(=O)[C@@H]1CCCN1C(=O)[C@H](CC(N)=O)NC(=O)[C@H](CCC(N)=O)NC(=O)[C@H](CCC(=O)O)NC(=O)[C@H](CSC1CC(=O)N(CCNC(=O)CCCCCN2/C(=C/C=C/C=C/C=C/C3=[N+](CCCCS(=O)(=O)[O-])c4ccc5ccccc5c4C3(C)C)C(C)(C)c3c2ccc2ccccc32)C1=O)NC(=O)[C@H](C)N)C(=O)N[C@@H](Cc1ccc(O)cc1)C(=O)N[C@@H](Cc1c[nH]c2ccccc12)C(=O)N[C@@H](C)C(=O)N[C@@H](CCCNC(=N)N)C(=O)N[C@@H](Cc1ccc(O)cc1)C(=O)N[C@@H](C)C(=O)N[C@@H](CC(=O)O)C(=O)N[C@@H](Cc1c[nH]c2ccccc12)C(=O)N[C@@H](CC(C)C)C(=O)N[C@@H](Cc1ccccc1)C(=O)N[C@H](C(=O)N[C@H](C(=O)N1CCC[C@H]1C(=O)N[C@@H](CC(C)C)C(=O)N[C@@H](CC(C)C)C(=O)N[C@@H](CC(C)C)C(=O)N[C@@H](CC(C)C)C(=O)N[C@@H](CC(=O)O)C(=O)N[C@@H](CC(C)C)C(=O)N[C@@H](C)C(=O)N[C@@H](CC(C)C)C(=O)N[C@@H](CC(C)C)C(=O)N[C@H](C(=O)N[C@@H](CC(=O)O)C(=O)N[C@@H](C)C(=O)N[C@@H](CC(=O)O)C(=O)N[C@@H](CCC(=O)O)C(=O)NCC(=O)N[C@H](C(=O)O)[C@@H](C)O)C(C)C)[C@@H](C)O)[C@@H](C)O` (stereo partly drawn) [ICG-WT pHLIP®], for which, in series [5], the “fluorescent signal in blood samples” value was “persistence of strong fluorescent signal within 2 hours”.

`N[C@@H](CO)C(=O)O` [Ser, Serine]: the “ΔGX^cor (solvation free energy of the side chain)” value in series [1] was “+0.69 kcal/mol”.

For `C[C@@H](O)[C@H](N)C(=O)O` [Thr, Threonine], the “ΔGX^cor (solvation free energy of the side chain)” value in series [1] was “+0.90 kcal/mol”.

As for “ICG-Hum pHLIP®: ICG maleimide conjugated to the Cys of Hum pHLIP® GCDNNEGFFATLGGEIPLWSDVVLAIEG (SEQ ID NO: 446) (GC(ICG maleimide)DNNEGFFATLGGEIPLWSDVVLAIEG)”, in series [5], the “imaging of blood vessels (ear, leg)” value was “slow in reaching the best imagibility condition and was fast in decaying”.

In the case of “IR800-WT pHLIP®: IR800 maleimide conjugated to the Cys of WT pHLIP® (SEQ ID NO: 444) (AC(IR800 maleimide)EQNPIYWARYADWLFTTPLLLLDLALLVDADEGT)”, the “imaging of blood vessels (ear, leg)” value in series [5] was “better in imaging of blood vessels, however not nearly as good as ICG-WT and ICG-Var3 pHLIP®s”.
